ChEMBL document CHEMBL4382254, “Design, synthesis, structure-activity relationships and mechanism of action of new quinoline derivatives as potential antitumor agents” (Eur J Med Chem, 2019)

Test system: DLD-1
Test: Cytotoxicity against human DLD1 cells after 48 hrs by MTT assay
Format: functional, cell-based
Details: DLD-1, 48 h

| SMILES | IC50 [nM] |
| --- | --- |
| Clc1ccnc2cc(OCc3ccccc3)ccc12 | 3270 |
| CC(C)Oc1ccc2c(Cl)ccnc2c1 | 3240 |
| Clc1ccnc2cc(OCCCc3ccccc3)ccc12 | 2140 |
| CN(C)CCCNc1ccnc2cc(OCc3ccc(F)cc3)ccc12 | 2540 |
| CCOc1ccc2c(NCCN(C)C)ccnc2c1 | 6240 |
| CCOc1ccc2c(Cl)ccnc2c1 | 2750 |
| CCCCCCOc1ccc2c(Cl)ccnc2c1 | 2660 |
| CCCCCCCCOc1ccc2c(Cl)ccnc2c1 | 4500 |
| C=CCOc1ccc2c(NCCCN(C)C)ccnc2c1 | 5180 |
| Fc1ccc(COc2ccc3c(Cl)ccnc3c2)cc1 | 3230 |
| C=CCOc1ccc2c(NCCN(C)C)ccnc2c1 | 1530 |
| CCCCOc1ccc2c(Cl)ccnc2c1 | 3780 |
| Oc1ccnc2cc(Cl)ccc12 | > 10000 |
| Clc1ccnc2cc(OCCc3ccccc3)ccc12 | 3380 |
| CCOc1ccc2c(NCCCN(C)C)ccnc2c1 | 8540 |
| CN(C)CCNc1ccnc2cc(OCc3ccccc3)ccc12 | 2140 |
| CC(C)COc1ccc2c(Cl)ccnc2c1 | 3100 |
| C=CCOc1ccc2c(Cl)ccnc2c1 | 2890 |
| CCCCCCOc1ccc2c(NCCN(C)C)ccnc2c1 | 1870 |
| COc1ccc2c(Cl)ccnc2c1 | > 10000 |

Test system: HepG2
Test: Cytotoxicity against human HepG2 cells after 48 hrs by MTT assay
Format: functional, cell-based
Details: HepG2, 48 h

| SMILES | IC50 [nM] |
| --- | --- |
| Clc1ccnc2cc(OCc3ccccc3)ccc12 | 2680 |
| CC(C)Oc1ccc2c(Cl)ccnc2c1 | 2050 |
| Clc1ccnc2cc(OCCCc3ccccc3)ccc12 | 1780 |
| CN(C)CCCNc1ccnc2cc(OCc3ccc(F)cc3)ccc12 | 1570 |
| CCOc1ccc2c(NCCN(C)C)ccnc2c1 | 5680 |
| CCOc1ccc2c(Cl)ccnc2c1 | 2660 |
| CCCCCCOc1ccc2c(Cl)ccnc2c1 | 2420 |
| CCCCCCCCOc1ccc2c(Cl)ccnc2c1 | 2640 |
| C=CCOc1ccc2c(NCCCN(C)C)ccnc2c1 | 3990 |
| Fc1ccc(COc2ccc3c(Cl)ccnc3c2)cc1 | 3010 |
| C=CCOc1ccc2c(NCCN(C)C)ccnc2c1 | 1660 |
| CCCCOc1ccc2c(Cl)ccnc2c1 | 2640 |
| Oc1ccnc2cc(Cl)ccc12 | > 10000 |
| Clc1ccnc2cc(OCCc3ccccc3)ccc12 | 3310 |
| CCOc1ccc2c(NCCCN(C)C)ccnc2c1 | 5860 |
| CN(C)CCNc1ccnc2cc(OCc3ccccc3)ccc12 | 3120 |
| CC(C)COc1ccc2c(Cl)ccnc2c1 | 2250 |
| C=CCOc1ccc2c(Cl)ccnc2c1 | 2770 |
| CCCCCCOc1ccc2c(NCCN(C)C)ccnc2c1 | 1370 |
| COc1ccc2c(Cl)ccnc2c1 | 6070 |

Test system: SK-OV-3
Test: Cytotoxicity against human SKOV3 cells after 48 hrs by MTT assay
Format: functional, cell-based
Details: SK-OV-3, 48 h

| SMILES | IC50 [nM] |
| --- | --- |
| Clc1ccnc2cc(OCc3ccccc3)ccc12 | 5170 |
| CC(C)Oc1ccc2c(Cl)ccnc2c1 | 3060 |
| Clc1ccnc2cc(OCCCc3ccccc3)ccc12 | 3610 |
| CN(C)CCCNc1ccnc2cc(OCc3ccc(F)cc3)ccc12 | 1280 |
| CCOc1ccc2c(NCCN(C)C)ccnc2c1 | 4620 |
| CCOc1ccc2c(Cl)ccnc2c1 | 3460 |
| CCCCCCOc1ccc2c(Cl)ccnc2c1 | > 10000 |
| CCCCCCCCOc1ccc2c(Cl)ccnc2c1 | 4300 |
| C=CCOc1ccc2c(NCCCN(C)C)ccnc2c1 | 4250 |
| Fc1ccc(COc2ccc3c(Cl)ccnc3c2)cc1 | 2780 |
| C=CCOc1ccc2c(NCCN(C)C)ccnc2c1 | 1560 |
| CCCCOc1ccc2c(Cl)ccnc2c1 | 4130 |
| Oc1ccnc2cc(Cl)ccc12 | > 10000 |
| Clc1ccnc2cc(OCCc3ccccc3)ccc12 | 2010 |
| CCOc1ccc2c(NCCCN(C)C)ccnc2c1 | 6780 |
| CN(C)CCNc1ccnc2cc(OCc3ccccc3)ccc12 | 2350 |
| CC(C)COc1ccc2c(Cl)ccnc2c1 | 3190 |
| C=CCOc1ccc2c(Cl)ccnc2c1 | 4030 |
| CCCCCCOc1ccc2c(NCCN(C)C)ccnc2c1 | 1860 |
| COc1ccc2c(Cl)ccnc2c1 | > 10000 |

Test system: BGC-823
Test: Cytotoxicity against human BGC823 cells after 48 hrs by MTT assay
Format: functional, cell-based
Details: BGC-823, 48 h

| SMILES | IC50 [nM] |
| --- | --- |
| Clc1ccnc2cc(OCc3ccccc3)ccc12 | 5170 |
| CC(C)Oc1ccc2c(Cl)ccnc2c1 | 2630 |
| Clc1ccnc2cc(OCCCc3ccccc3)ccc12 | 2370 |
| CN(C)CCCNc1ccnc2cc(OCc3ccc(F)cc3)ccc12 | 490 |
| CCOc1ccc2c(NCCN(C)C)ccnc2c1 | 2520 |
| CCOc1ccc2c(Cl)ccnc2c1 | 3910 |
| CCCCCCOc1ccc2c(Cl)ccnc2c1 | 2380 |
| CCCCCCCCOc1ccc2c(Cl)ccnc2c1 | 4300 |
| C=CCOc1ccc2c(NCCCN(C)C)ccnc2c1 | 6680 |
| Fc1ccc(COc2ccc3c(Cl)ccnc3c2)cc1 | 2780 |
| C=CCOc1ccc2c(NCCN(C)C)ccnc2c1 | 1360 |
| CCCCOc1ccc2c(Cl)ccnc2c1 | 3610 |
| Oc1ccnc2cc(Cl)ccc12 | > 10000 |
| Clc1ccnc2cc(OCCc3ccccc3)ccc12 | 2010 |
| CCOc1ccc2c(NCCCN(C)C)ccnc2c1 | 9810 |
| CN(C)CCNc1ccnc2cc(OCc3ccccc3)ccc12 | 1250 |
| CC(C)COc1ccc2c(Cl)ccnc2c1 | 3030 |
| C=CCOc1ccc2c(Cl)ccnc2c1 | 2930 |
| CCCCCCOc1ccc2c(NCCN(C)C)ccnc2c1 | 1090 |
| COc1ccc2c(Cl)ccnc2c1 | > 10000 |

Test system: RKO
Test: Cytotoxicity against human RKO cells after 48 hrs by MTT assay
Format: functional, cell-based
Details: not given

| SMILES | IC50 [nM] |
| --- | --- |
| Clc1ccnc2cc(OCc3ccccc3)ccc12 | 2410 |
| CC(C)Oc1ccc2c(Cl)ccnc2c1 | 2690 |
| Clc1ccnc2cc(OCCCc3ccccc3)ccc12 | 1420 |
| CN(C)CCCNc1ccnc2cc(OCc3ccc(F)cc3)ccc12 | 1230 |
| CCOc1ccc2c(NCCN(C)C)ccnc2c1 | 3650 |
| CCOc1ccc2c(Cl)ccnc2c1 | 3870 |
| CCCCCCOc1ccc2c(Cl)ccnc2c1 | 2720 |
| CCCCCCCCOc1ccc2c(Cl)ccnc2c1 | 3640 |
| C=CCOc1ccc2c(NCCCN(C)C)ccnc2c1 | 3560 |
| Fc1ccc(COc2ccc3c(Cl)ccnc3c2)cc1 | 1980 |
| C=CCOc1ccc2c(NCCN(C)C)ccnc2c1 | 1270 |
| CCCCOc1ccc2c(Cl)ccnc2c1 | 3050 |
| Oc1ccnc2cc(Cl)ccc12 | > 10000 |
| Clc1ccnc2cc(OCCc3ccccc3)ccc12 | 2560 |
| CCOc1ccc2c(NCCCN(C)C)ccnc2c1 | 5240 |
| CN(C)CCNc1ccnc2cc(OCc3ccccc3)ccc12 | 2350 |
| CC(C)COc1ccc2c(Cl)ccnc2c1 | 2680 |
| C=CCOc1ccc2c(Cl)ccnc2c1 | 2460 |
| CCCCCCOc1ccc2c(NCCN(C)C)ccnc2c1 | 1120 |
| COc1ccc2c(Cl)ccnc2c1 | 9650 |

Test system: not listed separately
Test: Solubility of the compound in water
Format: physicochemical
Details: not given

| solubility [µg/mL] | SMILES |
| --- | --- |
| > 10000 | CN(C)CCCNc1ccnc2cc(OCc3ccc(F)cc3)ccc12 |
| > 10000 | CCOc1ccc2c(NCCN(C)C)ccnc2c1 |
| > 10000 | C=CCOc1ccc2c(NCCCN(C)C)ccnc2c1 |
| > 10000 | C=CCOc1ccc2c(NCCN(C)C)ccnc2c1 |
| > 10000 | CCOc1ccc2c(NCCCN(C)C)ccnc2c1 |
| > 10000 | CN(C)CCNc1ccnc2cc(OCc3ccccc3)ccc12 |
| > 10000 | CCCCCCOc1ccc2c(NCCN(C)C)ccnc2c1 |

Test system: NCI-H1650
Test: Cytotoxicity against human NCI-H1650 cells after 48 hrs by MTT assay
Format: functional, cell-based
Details: NCI-H1650, 48 h

| SMILES | IC50 [nM] |
| --- | --- |
| Clc1ccnc2cc(OCc3ccccc3)ccc12 | 2720 |
| CC(C)Oc1ccc2c(Cl)ccnc2c1 | 2310 |
| Clc1ccnc2cc(OCCCc3ccccc3)ccc12 | 630 |
| CN(C)CCCNc1ccnc2cc(OCc3ccc(F)cc3)ccc12 | 940 |
| CCOc1ccc2c(NCCN(C)C)ccnc2c1 | 3490 |
| CCOc1ccc2c(Cl)ccnc2c1 | 3340 |
| CCCCCCOc1ccc2c(Cl)ccnc2c1 | 2080 |
| CCCCCCCCOc1ccc2c(Cl)ccnc2c1 | 3240 |
| C=CCOc1ccc2c(NCCCN(C)C)ccnc2c1 | 3120 |
| Fc1ccc(COc2ccc3c(Cl)ccnc3c2)cc1 | 2230 |
| C=CCOc1ccc2c(NCCN(C)C)ccnc2c1 | 930 |
| CCCCOc1ccc2c(Cl)ccnc2c1 | 2570 |
| Oc1ccnc2cc(Cl)ccc12 | > 10000 |
| Clc1ccnc2cc(OCCc3ccccc3)ccc12 | 2300 |
| CCOc1ccc2c(NCCCN(C)C)ccnc2c1 | 3830 |
| CN(C)CCNc1ccnc2cc(OCc3ccccc3)ccc12 | 1620 |
| CC(C)COc1ccc2c(Cl)ccnc2c1 | 2100 |
| C=CCOc1ccc2c(Cl)ccnc2c1 | 2280 |
| CCCCCCOc1ccc2c(NCCN(C)C)ccnc2c1 | 930 |
| COc1ccc2c(Cl)ccnc2c1 | 8160 |

Test system: HCT-116
Test: Cytotoxicity against human HCT116 cells after 48 hrs by MTT assay
Format: functional, cell-based
Details: HCT-116, 48 h

| SMILES | IC50 [nM] |
| --- | --- |
| Clc1ccnc2cc(OCc3ccccc3)ccc12 | 2470 |
| CC(C)Oc1ccc2c(Cl)ccnc2c1 | 2590 |
| Clc1ccnc2cc(OCCCc3ccccc3)ccc12 | 800 |
| CN(C)CCCNc1ccnc2cc(OCc3ccc(F)cc3)ccc12 | 740 |
| CCOc1ccc2c(NCCN(C)C)ccnc2c1 | 2570 |
| CCOc1ccc2c(Cl)ccnc2c1 | 3160 |
| CCCCCCOc1ccc2c(Cl)ccnc2c1 | 2440 |
| CCCCCCCCOc1ccc2c(Cl)ccnc2c1 | 2820 |
| C=CCOc1ccc2c(NCCCN(C)C)ccnc2c1 | 2100 |
| Fc1ccc(COc2ccc3c(Cl)ccnc3c2)cc1 | 2070 |
| C=CCOc1ccc2c(NCCN(C)C)ccnc2c1 | 860 |
| CCCCOc1ccc2c(Cl)ccnc2c1 | 2740 |
| Oc1ccnc2cc(Cl)ccc12 | > 10000 |
| Clc1ccnc2cc(OCCc3ccccc3)ccc12 | 2180 |
| CCOc1ccc2c(NCCCN(C)C)ccnc2c1 | 3380 |
| CN(C)CCNc1ccnc2cc(OCc3ccccc3)ccc12 | 1980 |
| CC(C)COc1ccc2c(Cl)ccnc2c1 | 2490 |
| C=CCOc1ccc2c(Cl)ccnc2c1 | 2570 |
| CCCCCCOc1ccc2c(NCCN(C)C)ccnc2c1 | 850 |
| COc1ccc2c(Cl)ccnc2c1 | 8820 |
